{
  "source": "paper PMC10388362",
  "about": "“Fluorescent Ligands Enable Target Engagement Studies for the Intracellular Allosteric Binding Site of the Chemokine Receptor CXCR2” (Journal of Medicinal Chemistry, 2023)",
  "biological_target": "T1, CXCR2 (Homo sapiens, UniProt P25025)",
  "T1 construct": "Promega pNLF1-C (Nluc) #CXCR20TN00; host or cells: HEK293T, transient transfection (PEI)",
  "T1 sequence (P25025 1-360)": "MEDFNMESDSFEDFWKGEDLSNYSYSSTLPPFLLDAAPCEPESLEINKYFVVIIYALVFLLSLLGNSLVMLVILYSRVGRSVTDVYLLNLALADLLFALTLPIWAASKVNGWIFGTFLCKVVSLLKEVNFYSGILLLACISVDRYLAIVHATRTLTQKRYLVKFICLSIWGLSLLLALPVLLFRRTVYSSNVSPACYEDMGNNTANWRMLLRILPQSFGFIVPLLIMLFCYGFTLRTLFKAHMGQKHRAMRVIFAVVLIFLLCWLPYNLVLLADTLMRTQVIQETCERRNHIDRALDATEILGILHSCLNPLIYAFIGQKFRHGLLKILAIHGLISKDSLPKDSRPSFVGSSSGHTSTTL",
  "assay": "Live cell NanoBRET association and dissociation kinetic assay",
  "assay_type": "binding",
  "conditions": "37 °C",
  "method": "HEK293T cells were transfected with the plasmid (5.5 μg) for CXCR2_Nluc using polyethylenimine (PEI) as the transfection reagent (PEI/DNA ratio 3:1). After 24 h at 37 °C and 5% CO2, the cells were detached with DMEM and transferred to a white F-bottom 384-well plate (10,000 cells/well), which was coated with 5 μL/well poly-D-lysine (0.1 mg/mL, dissolved in water), and incubated for further 24 h at 37 °C and 5% CO2. Subsequently, the cells were washed with phosphate-buffered saline (Gibco DPBS, with CaCl2 and MgCl2). 15 μL of the assay medium (Gibco DMEM/F12, 15 mM HEPES, no phenol red supplemented with 5% FBS) and 5 μL of vivazine (final assay dilution: 1:300 in the assay buffer) were added and the cells were incubated at 37 °C for 90 min. Then, 5 μL of the fluorescent ligand (9a), diluted to varying concentrations (final assay concentrations: 10–0.5 nM in the assay medium) was transferred to a 384-well plate. For the determination of nonspecific binding, we added a solution of the fluorescent ligand (9a) and a nonlabeled competitor dissolved in the assay medium (3, final assay concentration: 10 μM) instead. BRET ratios were measured with a CLARIOstar microplate reader using 620/10 and 475/30 nm emission filters over time. The obtained data were analyzed using the association kinetics (two or more conc. of hot ligand) algorithm in PRISM9.5 (GraphPad) to determine the association kinetics.\nAfter running the association assay in cells for at least 133 min, 1 μL of an unlabeled competitor dissolved in the assay buffer (3, final assay concentration: 10 μM) was added. For control experiments, we added 1 μL of the assay medium instead of the competitor solution. BRET ratios were measured with a CLARIOstar microplate reader using 620/10 and 475/30 nm emission filters over time. Specific BRET ratios were calculated as a difference of total and nonspecific binding. The obtained data were analyzed using the dissociation one phase exponential decay algorithm in PRISM9.5 (GraphPad) to determine the dissociation kinetics.",
  "key": {"[1]": {"conditions": "cells, 9a 1 nM, single determinations"}, "[2]": {"conditions": "cells, 9a 5 nM, single determinations"}, "[3]": {"conditions": "cells, 9a 10 nM, single determinations"}, "[4]": {"conditions": "live HEK293T cells expressing CXCR2_Nluc, mean"}},
  "note": "Where “and” joins values, the source holds several entries; their conditions need not be identical. Equal entries are not always repeated.",
  "data": [
    {"compound": "Cc1ccc([C@H](Nc2c(Nc3cccc(C(=O)NCc4cn(CCOCCOCCOCCNC(=O)c5ccc(C(=O)[O-])c(-c6c7ccc(=[N+](C)C)cc-7oc7cc(N(C)C)ccc67)c5)nn4)c3O)c(=O)c2=O)C(C)(C)C)o1", "note": "[9a, (R)-4-((2-(2-(2-(2-(4-((3-((2-((2,2-Dimethyl-1-(5-methylfuran-2-yl)propyl)amino)-3,4-dioxocyclobut-1-en-1-yl)amino)-2-hydroxybenzamido)methyl)-1H-1,2,3-triazol-1-yl)ethoxy)ethoxy)ethoxy)ethyl)carbamoyl)-2-(6-(dimethylamino)-3-(dimethyliminio)-3H-xanthen-9-yl)benzoate]", "values": [
      {"measurement": "koff", "setting": "[1]", "result": "8.88e-05", "unit": "s⁻¹"},
      {"measurement": "koff [min-1]", "setting": "[1]", "result": "0.00837 min⁻¹ and 0.00621 min⁻¹ and 0.00861 min⁻¹"},
      {"measurement": "tr", "setting": "[1]", "result": "187.6 min and 119.5 min and 161.1 min and 116.1 min"},
      {"measurement": "koff", "setting": "[2]", "result": "9.75e-05", "unit": "s⁻¹"},
      {"measurement": "koff [min-1]", "setting": "[2]", "result": "0.0072 min⁻¹ and 0.00855 min⁻¹ and 0.00476 min⁻¹"},
      {"measurement": "tr", "setting": "[2]", "result": "210.2 min and 170.9 min and 138.9 min and 117.0 min"},
      {"measurement": "koff", "setting": "[3]", "result": "7.53e-05", "unit": "s⁻¹"},
      {"measurement": "koff [min-1]", "setting": "[3]", "result": "0.00791 min⁻¹ and 0.00898 min⁻¹ and 0.00859 min⁻¹"},
      {"measurement": "tr", "setting": "[3]", "result": "221.0 min and 126.4 min and 111.4 min and 116.4 min"},
      {"measurement": "Kd", "setting": "live HEK293T cells expressing CXCR2_Nluc", "result": "0.2 ± 0.02", "unit": "nM"},
      {"measurement": "koff", "setting": "[4]", "result": 0.000122, "unit": "s⁻¹"},
      {"measurement": "kon", "setting": "[4]", "result": 620000, "unit": "M⁻¹ s⁻¹"},
      {"measurement": "residence time tr", "setting": "[4]", "result": "146 ± 10", "unit": "min"},
      {"measurement": "residence time", "setting": "live HEK293T cells expressing CXCR2_Nluc, mean, read-out: residence time tr", "result": 146, "unit": "min"}
    ]}
  ]
}
